Test results published in US11999727B2 (Tango Therapeutics, Inc., priority 2020, dated 2024).

Columns and labels:
[1] = biological target: T1, PRMT5 (Homo sapiens, UniProt O14744); experiment: PRMT5 biochemical IC50 assay with SAM as cofactor; conditions: PRMT5, SAM as cofactor; read-out: SAM IC50
T1 construct: purchased Viva (custom protein)

[2] = biological target: T1, PRMT5; experiment: PRMT5 biochemical IC50 assay with no cofactor; conditions: PRMT5, no cofactor; read-out: No Cofactor/rel IC50
From the text: Table 1 indicates IC50 values (μM) against PRMT5 for exemplary compounds in the presence of SAM as cofactor, with no cofactor, and with MTA as cofactor, respectively (columns 4-6). […] Ki values can be calculated from the IC50 values as described in the Examples section. As detailed in the Examples section, for the assay performed in the presence of SAM, IC50=Ki×1.5 (Ki=IC50/1.5).

[3] = biological target: T1, PRMT5; experiment: PRMT5 biochemical IC50 assay with MTA as cofactor; conditions: PRMT5, MTA as cofactor; read-out: MTA IC50
[4] = test system: HAP1 MTAP-intact cell line; experiment: SDMA in-cell western assay, HAP1 MTAP-intact; type: cell-based; conditions: Homo sapiens, HAP1, SDMA in-cell western, HAP1 MTAP-intact; read-out: MTAP HAP1 intact IC50
Outline: (§1)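 MTAP-null vs endogenous-MTAP HAP1 isogenic cells; in-cell western SDMA readout; IC50 per line.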

[5] = test system: HAP1 MTAP-deleted cell line; experiment: SDMA in-cell western assay, HAP1 MTAP-deleted; type: cell-based; conditions: for IC50: Homo sapiens, HAP1, SDMA in-cell western, HAP1 MTAP-deleted, read-out: HAP 1 MTAP deleted IC50; for MTAP intact/deleted ratio: IC50 ratio HAP1 MTAP-intact / HAP1 MTAP-deleted, SDMA in-cell western
Outline: as §1

[6] = test system: HAP1 MTAP-deleted cell line; experiment: Viability assay, MTAP-deleted cell line; type: cell-based; conditions: Homo sapiens, HAP1, viability assay, MTAP-deleted cell line; read-out: HAP1 MTAP deleted viability
From the text: Table 1 additionally indicates IC50 values in a viability assay for the MTAP-deleted cell line (column 10), indicating the effect of treatment with compound on cell survival.

T1 sequence (O14744 whole entry): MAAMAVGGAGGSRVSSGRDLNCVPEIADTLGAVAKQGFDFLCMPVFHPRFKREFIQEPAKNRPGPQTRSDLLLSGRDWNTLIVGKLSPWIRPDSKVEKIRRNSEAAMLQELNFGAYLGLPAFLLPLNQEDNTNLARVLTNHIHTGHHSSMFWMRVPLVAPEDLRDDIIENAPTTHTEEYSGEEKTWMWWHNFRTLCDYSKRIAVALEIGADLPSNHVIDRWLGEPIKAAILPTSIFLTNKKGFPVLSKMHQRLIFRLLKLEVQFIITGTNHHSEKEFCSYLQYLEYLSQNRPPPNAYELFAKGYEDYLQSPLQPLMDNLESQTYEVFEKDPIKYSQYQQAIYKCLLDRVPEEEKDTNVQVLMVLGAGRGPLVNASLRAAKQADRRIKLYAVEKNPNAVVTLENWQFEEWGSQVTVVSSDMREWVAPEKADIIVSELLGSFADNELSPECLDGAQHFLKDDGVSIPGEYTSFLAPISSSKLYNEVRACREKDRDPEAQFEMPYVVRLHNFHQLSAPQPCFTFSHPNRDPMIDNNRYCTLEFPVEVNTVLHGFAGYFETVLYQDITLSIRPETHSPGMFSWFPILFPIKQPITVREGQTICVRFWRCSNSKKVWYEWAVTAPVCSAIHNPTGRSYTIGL
T1 sequence (Q9BQA1 whole entry partner): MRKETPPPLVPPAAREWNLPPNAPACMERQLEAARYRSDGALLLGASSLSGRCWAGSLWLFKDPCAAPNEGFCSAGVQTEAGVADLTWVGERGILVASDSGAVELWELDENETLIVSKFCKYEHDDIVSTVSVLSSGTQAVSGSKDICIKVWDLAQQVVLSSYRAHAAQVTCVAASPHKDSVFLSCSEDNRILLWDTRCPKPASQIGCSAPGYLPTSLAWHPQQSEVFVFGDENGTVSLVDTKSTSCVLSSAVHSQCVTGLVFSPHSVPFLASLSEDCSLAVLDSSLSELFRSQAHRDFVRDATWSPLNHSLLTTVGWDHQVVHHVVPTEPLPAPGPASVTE

IC50 [1] [µM] | IC50 [2] [µM] | IC50 [3] [µM] | IC50 [4] [µM] | IC50 [5] [µM] | Compound | MTAP intact/deleted ratio [5] | IC50 [6] [µM]
> 0.5 | > 0.5 | > 0.5 | > 1 | > 1 | Cc1cc(NC(=O)C(=O)N2C[C@H](C)CC[C@H]2c2cn[nH]c2)cnc1N (single isomer, unassigned) [Compound 969] | C (an IC50 ratio of less than 3 fold) | > 10
> 0.5 | > 0.5 | > 0.5 | > 1 | > 1 | C[C@@H]1CC[C@@H](c2cn[nH]c2)N(C(=O)C(=O)Nc2cncc(C(N)=O)c2)C1 (single isomer, unassigned) [Compound 970] | C (an IC50 ratio of less than 3 fold) | > 10
0.05 to 0.5 | 0.05 to 0.5 | < 0.05 | < 0.1 | < 0.1 | Cc1cc(NC(=O)C(=O)N2C[C@@H](C)CC[C@@H]2c2ccc3sc(C(F)(F)F)nc3c2)cnc1N (single isomer, unassigned) [Compound 972] | B (an IC50 ratio greater than or equal to 3 fold but lower than 10 fold) | < 1
0.05 to 0.5 | 0.05 to 0.5 | < 0.05 | 0.1 to 1 | < 0.1 | Cc1ccc([C@H]2CC(F)(F)[C@H](C)CN2C(=O)C(=O)Nc2cnc(N)c(C)c2)cn1 (single isomer, unassigned) [Compound 973] | A (an IC50 ratio greater than or equal to 10 fold) | 1 to 10
0.05 to 0.5 | 0.05 to 0.5 | < 0.05 | > 1 | < 0.1 | Cc1ccc([C@H]2CC(F)(F)[C@H](C)CN2C(=O)C(=O)Nc2cncc(C(N)=O)c2)cn1 (single isomer, unassigned) [Compound 974] | A (an IC50 ratio greater than or equal to 10 fold) | 1 to 10
> 0.5 | 0.05 to 0.5 | 0.05 to 0.5 | > 1 | > 1 | C[C@H]1CC[C@H](c2cc[nH]n2)N(C(=O)C(=O)Nc2cncc(C(N)=O)c2)C1 (single isomer, unassigned) [Compound 978] | C (an IC50 ratio of less than 3 fold) | > 10
0.05 to 0.5 | 0.05 to 0.5 | 0.05 to 0.5 | > 1 | > 1 | Cc1cc(NC(=O)C(=O)N2C[C@H](C)CC[C@H]2c2ccc(NS(C)(=O)=O)nc2)cnc1N (single isomer, unassigned) [Compound 980] | B (an IC50 ratio greater than or equal to 3 fold but lower than 10 fold) | > 10
> 0.5 | 0.05 to 0.5 | < 0.05 | > 1 | 0.1 to 1 | COc1ncc(NC(=O)C(=O)N2C[C@H](C)CC[C@H]2c2ccc(NS(C)(=O)=O)nc2)cc1C(N)=O (single isomer, unassigned) [Compound 986] | A (an IC50 ratio greater than or equal to 10 fold) | 1 to 10
> 0.5 | 0.05 to 0.5 | < 0.05 | > 1 | 0.1 to 1 | Cc1cc(NC(=O)C(=O)N2C[C@@H](C)CC[C@@H]2c2ccc3c(c2)CCNC3=O)cnc1N (single isomer, unassigned) [Compound 988] | A (an IC50 ratio greater than or equal to 10 fold) | 1 to 10
0.05 to 0.5 | 0.05 to 0.5 | 0.05 to 0.5 | > 1 | 0.1 to 1 | CCc1cc(NC(=O)C(=O)N2C[C@H](C)CC[C@H]2c2ccc(NS(C)(=O)=O)nc2)cnc1N (single isomer, unassigned) [Compound 995] | A (an IC50 ratio greater than or equal to 10 fold) | > 10
0.05 to 0.5 | < 0.05 | < 0.05 | < 0.1 | < 0.1 | Cc1cc(NC(=O)C(=O)N2C[C@@H](C)CC[C@@H]2c2ccc3sc(N)nc3c2)cnc1N (single isomer, unassigned) [Compound 997] | B (an IC50 ratio greater than or equal to 3 fold but lower than 10 fold) | < 1
> 0.5 | > 0.5 | > 0.5 | > 1 | > 1 | Cc1cc(NC(=O)C(=O)N2C[C@@H](C)CC[C@@H]2c2ccc(NS(C)(=O)=O)nc2)cnc1N (single isomer, unassigned) [Compound 998] | C (an IC50 ratio of less than 3 fold) | > 10
0.05 to 0.5 | 0.05 to 0.5 | < 0.05 | > 1 | > 1 | C[C@@H]1CC[C@@H](c2ccc(NS(C)(=O)=O)nc2)N(C(=O)C(=O)Nc2cncc(C(N)=O)c2)C1 (single isomer, unassigned) [Compound 1003] | C (an IC50 ratio of less than 3 fold) | > 10
0.05 to 0.5 | 0.05 to 0.5 | < 0.05 | > 1 | < 0.1 | COc1ncc(NC(=O)C(=O)N2C[C@@H](C)CC[C@@H]2c2cc3[nH]ncc3s2)cc1C(N)=O (single isomer, unassigned) [Compound 1006, 2-methoxy-5-(2-(5-methyl-2-(1H-thieno[3,2-c]pyrazol-5-yl)piperidin-1-yl)-2-oxoacetamido)nicotinamide] | A (an IC50 ratio greater than or equal to 10 fold) | < 1
> 0.5 | > 0.5 | > 0.5 | > 1 | > 1 | C[C@@H]1CC[C@@H](c2cc[nH]n2)N(C(=O)C(=O)Nc2cncc(C(N)=O)c2)C1 (single isomer, unassigned) [Compound 1007] | B (an IC50 ratio greater than or equal to 3 fold but lower than 10 fold) | > 10
> 0.5 | > 0.5 | > 0.5 | > 1 | > 1 | Cc1cc(NC(=O)C(=O)N2C[C@H](C)CC[C@H]2c2ccc(C(F)F)nc2)cnc1N (single isomer, unassigned) [Compound 1011] | C (an IC50 ratio of less than 3 fold) | > 10
0.05 to 0.5 | 0.05 to 0.5 | < 0.05 | 0.1 to 1 | 0.1 to 1 | Cc1cc(NC(=O)C(=O)N2C[C@@H](C)CC[C@@H]2c2ccc(C(F)(F)F)nc2)cnc1N (single isomer, unassigned) [Compound 1012] | C (an IC50 ratio of less than 3 fold) | 1 to 10
0.05 to 0.5 | 0.05 to 0.5 | < 0.05 | 0.1 to 1 | < 0.1 | CCc1ccc([C@@H]2CC[C@@H](C)CN2C(=O)C(=O)Nc2cnc(N)c(C)c2)cn1 (single isomer, unassigned) [Compound 1013] | B (an IC50 ratio greater than or equal to 3 fold but lower than 10 fold) | 1 to 10
0.05 to 0.5 | < 0.05 | < 0.05 | < 0.1 | < 0.1 | Cc1cc(NC(=O)C(=O)N2C[C@H](C)CC[C@H]2c2ccc(N3CCN(C)CC3)nc2)cnc1N (single isomer, unassigned) [Compound 1014] | B (an IC50 ratio greater than or equal to 3 fold but lower than 10 fold) | < 1
> 0.5 | > 0.5 | > 0.5 | > 1 | > 1 | Cc1cc(NC(=O)C(=O)N2C[C@H](C)CC[C@H]2c2ccc(C(F)(F)F)nc2)cnc1N (single isomer, unassigned) [Compound 1015] | C (an IC50 ratio of less than 3 fold) | > 10
> 0.5 | > 0.5 | > 0.5 | > 1 | > 1 | CCc1ccc([C@H]2CC[C@H](C)CN2C(=O)C(=O)Nc2cnc(N)c(C)c2)cn1 (single isomer, unassigned) [Compound 1016] | C (an IC50 ratio of less than 3 fold) | > 10
> 0.5 | > 0.5 | > 0.5 | > 1 | > 1 | Cc1cc(NC(=O)C(=O)N2C[C@@H](C)CC[C@@H]2c2ccc(N3CCN(C)CC3)nc2)cnc1N (single isomer, unassigned) [Compound 1017] | C (an IC50 ratio of less than 3 fold) | < 1
